Reference: US20230143612A1 (Arbutus Biopharma Corporation, priority 2020, published 2023)

Target: PD-L1 His protein / PD-1 Fc protein (Homo sapiens, UniProt Q9NZQ7)
Experiment: HTRF Assay (PD-1/PD-L1 interaction)
Assay type: binding
Conditions: PD-L1 His 6 nM, PD-1 Fc 6 nM
Method in brief: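 HTRF: PD-L1 His (6 nM final), compound (3-fold dilutions, 20 μM to 0.001 μM final) and PD-1 Fc (6 nM final) preincubated 15 min at room temperature. Anti-human IgG-XL665 and anti-6HIS Tb cryptate (mixed at 6.7 nM and 0.35 nM) then added for 1 h at room temperature before reading.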

Sequence of PD-L1 His protein / PD-1 Fc protein (Q9NZQ7 19-238 limits assumed): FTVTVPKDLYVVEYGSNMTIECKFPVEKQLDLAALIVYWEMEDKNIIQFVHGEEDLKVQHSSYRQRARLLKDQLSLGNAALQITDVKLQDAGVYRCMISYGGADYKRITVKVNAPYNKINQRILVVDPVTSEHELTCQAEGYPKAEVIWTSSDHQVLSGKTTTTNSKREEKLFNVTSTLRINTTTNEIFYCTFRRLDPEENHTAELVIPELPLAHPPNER

Point of comparison: COc1nc(-c2cccc(-c3cccc(-c4ccc5c(Cl)c(CNC[C@@H]6CCC(=O)N6)[nH]c5n4)c3Cl)c2Cl)ccc1CNC[C@@H]1CCC(=O)N1 [Example 386, (S)-5-((((3-Chloro-6-(2,2′-dichloro-3′-(6-methoxy-5-(((((S)-5-oxopyrrolidin-2-yl)methyl)-amino)methyl)-pyridin-2-yl)-[1,1′-biphenyl]-3-yl)-1H-pyrrolo[2,3-b]-pyridin-2-yl)methyl)-amino)methyl)-pyrrolidin-2-one], IC50 0.028 µM. Against it:
- COc1nc(-c2cccc(-c3cccc(-c4ccc5c(CNC[C@@H]6CCO6)cn(C)c5n4)c3Cl)c2Cl)ccc1CNC[C@@H]1CCC(=O)N1 [Example 413, (5S)-5-[[[6-[2-Chloro-3-[2-chloro-3-[1-methyl-3-[[[(2S)-oxetan-2-yl]methylamino]methyl]pyrrolo[2,3-b]pyridin-6-yl]phenyl]phenyl]-2-methoxy-3-pyridyl]methylamino]methyl]pyrrolidin-2-one] — 6.8-fold higher, 0.19 µM
- COc1nc(-c2cccc(-c3cccc(-c4ccn5c(=O)c(CNC[C@@H]6CCC(=O)N6)cnc5c4)c3C)c2C(F)(F)F)ccc1CNC[C@@H]1CCC(=O)N1 [Example 96, 8-(3′-(6-Methoxy-5-(((((S)-5-oxopyrrolidin-2-yl)methyl)amino)methyl)pyridin-2-yl)-2-methyl-2′-(trifluoromethyl)-[1,1′-biphenyl]-3-yl)-3-(((((S)-5-oxopyrrolidin-2-yl)methyl)amino)methyl)-4H-pyrido[1,2-a]pyrimidin-4-one] — 2.4-fold higher, 0.068 µM
- O=C1CC[C@@H](CNCc2ccc(-c3cccc(-c4cccc(-c5ccn6c(=O)c(CNC[C@@H]7CCC(=O)N7)cnc6c5)c4Cl)c3Cl)nc2OC2CC2)N1 [Example 109, 8-(2,2′-Dichloro-3′-(6-cyclopropoxy-5-(((((S)-5-oxopyrrolidin-2-yl)methyl)amino)methyl)pyridin-2-yl)-[1,1′-biphenyl]-3-yl)-3-(((((S)-5-oxopyrrolidin-2-yl)methyl)amino)methyl)-4H-pyrido[1,2-a]pyrimidin-4-one] — 20-fold lower, 0.0014 µM
- COc1nc(-c2cccc(-c3cccc(-c4ccn5c(=O)c(C)c(CNC[C@H](C)O)nc5c4)c3Cl)c2Cl)ccc1CNC[C@@H]1CCC(=O)N1 [Example 377, 8-(2,2′-Dichloro-3′-(6-methoxy-5-(((((S)-5-oxopyrrolidin-2-yl)methyl)amino)methyl)pyridin-2-yl)-[1,1′-biphenyl]-3-yl)-2-((((S)-2-hydroxypropyl)amino)methyl)-3-methyl-4H-pyrido[1,2-a]pyrimidin-4-one] — within 1.5-fold, 0.021 µM
- NC1(Cc2ccc(-c3cccc(-c4cccc(-c5ccn6c(=O)c(CNC[C@@H]7CCC(=O)N7)cnc6c5)c4Cl)c3Cl)cc2)CC1 [Example 237, (S)-8-(4″-((1-Aminocyclopropyl)methyl)-2,2′-dichloro-[1,1′:3′,1″-terphenyl]-3-yl)-3-((((5-oxopyrrolidin-2-yl)methyl)amino)methyl)-4H-pyrido[1,2-a]pyrimidin-4-one] — 32-fold higher, 0.9 µM
- COC(=O)CNCc1nn2cc(-c3cccc(-c4cccc(-c5ccc(CNC[C@@H]6CCC(=O)N6)c(OC)n5)c4Cl)c3Cl)cc2c(=O)n1C [Example 482, Methyl 2-[[6-[2-chloro-3-[2-chloro-3-[6-methoxy-5-[[[(2S)-5-oxopyrrolidin-2-yl]methylamino]methyl]-2-pyridyl]phenyl]phenyl]-3-methyl-4-oxo-pyrrolo[2,1-f][1,2,4]triazin-2-yl]methylamino]acetate] — the same, 0.028 µM
- COc1nc(-c2cccc(-c3cccc(-c4ccn5c(=O)c(CN6C[C@@H](O)[C@H](O)C6)cnc5c4)c3Cl)c2Cl)ccc1CNC[C@@H]1CCC(=O)N1 [Example 347, 8-(2,2′-Dichloro-3′-(6-methoxy-5-(((((S)-5-oxopyrrolidin-2-yl)methyl)amino)methyl)pyridin-2-yl)-[1,1′-biphenyl]-3-yl)-3-(((3R,4R)-3,4-dihydroxypyrrolidin-1-yl)methyl)-4H-pyrido[1,2-a]pyrimidin-4-one] — 19-fold higher, 0.53 µM
- COC(=O)CNCc1cnc2cc(-c3cccc(-c4cccc(-c5ccc(CNC[C@@H]6CCC(=O)N6)c(OC)n5)c4Cl)c3Cl)cc(C)n2c1=O [Example 294, (S)-Methyl 2-(((8-(2,2′-dichloro-3′-(6-methoxy-5-((((5-oxopyrrolidin-2-yl)methyl)amino)methyl)pyridin-2-yl)-[1,1′-biphenyl]-3-yl)-6-methyl-4-oxo-4H-pyrido[1,2-a]pyrimidin-3-yl)methyl)amino)acetate] — 70-fold lower, 0.0004 µM
- COc1nc(-c2cccc(-c3cccc(-c4cc5c(=O)n(C)c(CNC(C)C)nn5c4)c3Cl)c2Cl)ccc1CNC[C@@H]1CCC(=O)N1 [Example 477, 6-[2-Chloro-3-[2-chloro-3-[6-methoxy-5-[[[(2S)-5-oxopyrrolidin-2-yl]methylamino]methyl]-2-pyridyl]phenyl]phenyl]-2-[(isopropylamino)methyl]-3-methyl-pyrrolo[2,1-f][1,2,4]triazin-4-one] — 1.6-fold lower, 0.017 µM
- COc1nc(-c2cccc(-c3cccc(-c4ccn5c(=O)c(CN(C)CCCO)cnc5c4)c3Cl)c2Cl)ccc1CNC[C@@H]1CCC(=O)N1 [Example 317, (S)-8-(2,2′-Dichloro-3′-(6-methoxy-5-((((5-oxopyrrolidin-2-yl)methyl)amino)methyl)pyridin-2-yl)-[1,1′-biphenyl]-3-yl)-3-(((3-hydroxypropyl)(methyl)amino)methyl)-4H-pyrido[1,2-a]pyrimidin-4-one] — 140-fold lower, 0.0002 µM
- COc1nc(-c2cccc(-c3cccc(-c4ccn5c(=O)c(CNC6CC7(CCNC7=O)C6)cnc5c4)c3Cl)c2Cl)ccc1CNC[C@@H]1CCC(=O)N1 (single isomer, unassigned) [Example 251] — 3.1-fold lower, 0.0089 µM
- COc1nc(-c2cccc(-c3cccc(-c4ccn5c(=O)c(C)c(CN[C@H]6C[C@](C)(O)C6)nc5c4)c3Cl)c2Cl)ccc1CNC[C@@H]1CCC(=O)N1 [Example 373, 8-(2,2′-Dichloro-3′-(6-methoxy-5-(((((S)-5-oxopyrrolidin-2-yl)methyl)amino)methyl)pyridin-2-yl)-[1,1′-biphenyl]-3-yl)-2-((((1r,3r)-3-hydroxy-3-methylcyclobutyl)amino)methyl)-3-methyl-4H-pyrido[1,2-a]pyrimidin-4-one] — within 1.5-fold, 0.033 µM
- COc1cc(-c2ccc(CNC[C@@H]3CCC(=O)N3)c(OC)n2)c(Cl)c(-c2cccc(-c3ccn4c(=O)c(CNC[C@@H]5CCC(=O)N5)cnc4c3)c2Cl)c1 [Example 146, 8-(2,2′-Dichloro-5′-methoxy-3′-(6-methoxy-5-(((((S)-5-oxopyrrolidin-2-yl)methyl)amino)methyl)pyridin-2-yl)-[1,1′-biphenyl]-3-yl)-3-(((((S)-5-oxopyrrolidin-2-yl)methyl)amino)methyl)-4H-pyrido[1,2-a]pyrimidin-4-one] — 8.6-fold higher, 0.24 µM
- COc1nc(-c2cccc(-c3cccc(-c4nnc5n4CCNC5)c3Cl)c2Cl)ccc1CNC[C@@H]1CCC(=O)N1 [Example 240, (S)-5-((((6-(2,2′-Dichloro-3′-(5,6,7,8-tetrahydro-[1,2,4]triazolo[4,3-a]pyrazin-3-yl)-[1,1′-biphenyl]-3-yl)-2-methoxypyridin-3-yl)methyl)amino)methyl)pyrrolidin-2-one] — 12-fold higher, 0.35 µM
- CNC(=O)C(C)(C)NCc1cnc2cc(-c3cccc(-c4cccc(-c5ccc(CNC[C@@H]6CCC(=O)N6)c(OC)n5)c4Cl)c3Cl)ccn2c1=O [Example 209, (S)-2-(((8-(2,2′-Dichloro-3′-(6-methoxy-5-((((5-oxopyrrolidin-2-yl)methyl)amino)methyl)pyridin-2-yl)-[1,1′-biphenyl]-3-yl)-4-oxo-4H-pyrido[1,2-a]pyrimidin-3-yl)methyl)amino)-N,2-dimethylpropanamide] — 280-fold lower, 0.0001 µM
- COc1nc(-c2cccc(-c3cccc(-c4cc5c(=O)n(C)c(CN[C@H]6CC[C@H](O)CC6)nn5c4)c3Cl)c2Cl)ccc1CNC[C@@H]1CCC(=O)N1 [Example 486, 6-[2-Chloro-3-[2-chloro-3-[6-methoxy-5-[[[(2S)-5-oxopyrrolidin-2-yl]methylamino]methyl]-2-pyridyl]phenyl]phenyl]-2-[[(4-hydroxycyclohexyl)amino]methyl]-3-methyl-pyrrolo[2,1-f][1,2,4]triazin-4-one] — 70-fold lower, 0.0004 µM
- COc1nc(-c2cccc(-c3cccc(-c4ccn5c(=O)c(CNCC(C)(C)OC)cnc5c4)c3Cl)c2Cl)ccc1CNC[C@@H]1CCC(=O)N1 [Example 345, (S)-8-(2,2′-Dichloro-3′-(6-methoxy-5-((((5-oxopyrrolidin-2-yl)methyl)amino)methyl)pyridin-2-yl)-[1,1′-biphenyl]-3-yl)-3-(((2-methoxy-2-methylpropyl)amino)methyl)-4H-pyrido[1,2-a]pyrimidin-4-one] — 1.5-fold higher, 0.042 µM
- COc1nc(-c2cccc(-c3cccc(-c4cc5c(=O)n(C)c(CNCCC(F)F)nn5c4)c3Cl)c2Cl)ccc1CNC[C@@H]1CCC(=O)N1 [compound 465, (S)-6-(2,2′-Dichloro-3′-(6-methoxy-5-((((5-oxopyrrolidin-2-yl)methyl)amino)methyl)pyridin-2-yl)-[1,1′-biphenyl]-3-yl)-2-(((3,3-difluoropropyl)amino)methyl)-3-methylpyrrolo[2,1-f][1,2,4]triazin-4(3H)-one] — 2-fold lower, 0.014 µM
- Cc1c(COc2cc(OCc3cncc(C#N)c3)c(CNCCO)cc2Cl)cccc1-c1cccc(-c2ccn3c(=O)c(CNCCO)ccc3c2)c1C [Example 9, 5-((4-Chloro-2-(((2-hydroxyethyl)amino)methyl)-5-((3′-(3-(((2-hydroxyethyl)amino)methyl)-4-oxo-4H-quinolizin-8-yl)-2,2′-dimethyl-[1,1′-biphenyl]-3-yl)methoxy)phenoxy)methyl)nicotinonitrile] — 25-fold lower, 0.0011 µM
- COc1nc(-c2cccc(-c3cccc(-c4ccc5nc(CNC[C@@H]6CCC(=O)N6)n(C)c5n4)c3Cl)c2Cl)ccc1CNC[C@@H]1CCC(=O)N1 [Example 314, (S)-5-((((6-(2,2′-Dichloro-3′-(3-methyl-2-(((((S)-5-oxopyrrolidin-2-yl)methyl)amino)methyl)-3H-imidazo[4,5-b]pyridin-5-yl)-[1,1′-biphenyl]-3-yl)-2-methoxypyridin-3-yl)methyl)amino)methyl)pyrrolidin-2-one] — 7.2-fold lower, 0.0039 µM
